Laboratory results reported in patent publication US10294248B2, “Beta-lactamase inhibitors” (VenatoRx Pharmaceuticals, Inc., priority 2013, dated 2019).

Key:
[1] = molecular target: T1, p99 AmpC β-lactamase (Class C) (Enterobacter cloacae, UniProt P05364); experiment: β-Lactamase inhibition, p99 AmpC; assay type: biochemical
T1 construct: made in house; host or cells: E. coli BL21(DE3)
Description: (§1) For SHV-5, Kpc-2, p99AmpC and OXA-1 β-lactamases, E. coli BL21(DE3) bacterial cells carrying expression plasmids (expressed as native untagged proteins) for the individual β-lactamases were grown in 1 L of Superbroth (Teknova Inc. Hollister, Calif.) supplemented with 100 μg/ml kanamycin selection and 1×5052 (0.5% glycerol, 0.05% glucose and 0.2% α-lactose) at 35° C. for 18-20 hours. Cells were harvested by centrifugation (4,000×g, 4° C., 20 min), resuspended in 50 ml of 10 mM HEPES pH 7.5 ( 1/20 of the initial volume). The cells were lysed by sonication (5 pulses of 45 seconds) at 45 W on ice. The lysates were clarified by centrifugation at 10,000×g for 40 minutes at 4° C. Samples were diluted 5-fold in 50 mM sodium acetate pH 5.0, stored overnight at 4° C., after which they were centrifuged at 10,000×g for 30 minutes to clarify, and filtered through 0.45 μm filters. The samples were loaded onto a 5 ml Capto S sepharose cation exchange column (GE Healthcare) pre-equilibrated with 50 mM sodium acetate pH 5.0. The column was washed with 5 column volumes of 50 mM sodium acetate pH 5.0 to wash out unbound protein and a linear gradient of NaCl (0 to 500 mM) was used to elute the protein (over 16 CV) from the column. Fractions were assayed for β-lactamase activity using Centa (Calbiochem, Gibbstown, N.J.) or Nitrocefin (EMD Millipore chemicals, Darmstadt, Germany) as a reporter β-lactamase substrate for activity in the isolated fractions. Active fractions were pooled, concentrated and further purified by gel filtration chromatography on a Superdex 75 prep grade gel filtration column (GE Healthcare, Piscataway, N.J.) pre-equilibrated in 50 mM Hepes pH 7.5, 150 mM NaCl. Active fractions were pooled concentrated, quantitated by BCA protein determination (Thermo Scientific, Rockford, Ill.), dialyzed into PBS and frozen at −80° C. in 20% glycerol until use.
(§2) An equal volume of diluted enzyme stock was added, and the plates were incubated at 37° C. for 15 min. Nitrocefin was used as substrate for p99 AmpC, VIM-2 and OXA-1 and dispensed into each well at a final concentration of 100 μM. Absorbance at 486 nm was immediately monitored for 10 min using a Biotek Powerwave XS2 microplate spectrophotometer using the GEN5 software package (Biotek Instruments, Winooski Vt.). In an analogous fashion, imipenem was used as substrate for Kpc-2 and Cefotaxime was used for SHV-5, while changes in absorbance upon hydrolysis of the β-lactam ring were monitored at 300 nm and 260 nm respectively in UV-transparent 96-well microtiter assay plates. Maximum rates of hydrolysis were compared to those in control wells (without inhibitors), and percentages of enzyme inhibition were calculated for each concentration of inhibitor. The concentration of inhibitor needed to reduce the initial rate of hydrolysis of substrate by 50% (IC50) was calculated as the residual activity of β-lactamase at 486 nm using GraFit version 7 kinetics software package (Erithacus Software, Surrey, UK).
(§3) Using the methodology described above, examples of the current invention were evaluated for their ability to inhibit β-lactamase enzymes from all four Ambler classifications (A through D). […] NT=Not tested.

[2] = molecular target: T2, OXA-1 β-lactamase (Class D oxacillinase) (Escherichia coli, UniProt P13661); experiment: β-Lactamase inhibition, OXA-1; assay type: biochemical; conditions: nitrocefin 100 μM, 486 nm; 15 min preincubation at 37° C., PBS pH 7.4
T2 construct: made in house; host or cells: E. coli BL21(DE3)
T2 sequence (P13661 26-276): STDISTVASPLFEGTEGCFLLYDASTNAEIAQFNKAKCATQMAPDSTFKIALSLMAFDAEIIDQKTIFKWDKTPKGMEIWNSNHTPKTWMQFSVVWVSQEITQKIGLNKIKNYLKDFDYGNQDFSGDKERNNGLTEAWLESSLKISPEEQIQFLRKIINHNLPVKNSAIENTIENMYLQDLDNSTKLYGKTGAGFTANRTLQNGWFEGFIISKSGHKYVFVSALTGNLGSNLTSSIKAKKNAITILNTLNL
Description: as §1, §2, §3

[3] = test system: E. cloacae 144200 expressing Class C P99 AmpC; experiment: Broth microdilution MIC, E. cloacae 144200 p99 AmpC; assay type: cell-based; conditions: fixed 4 μg/mL ceftazidime; CAMHB, 16-20 hours at 37° C.
From the text: (§4) To determine the ability of test compounds to potentiate the inhibition of the growth of bacterial strains that produce beta-lactamase enzymes, classic cell based broth microdilution MIC assays were employed. Six bacteria strains producing beta-lactamase enzymes were used: E. coli expressing the Class A Extended Spectrum Beta-Lactamase (ESBL) CTX-M-15, E. cloacae expressing the Class C P99, K. pneumoniae expressing the Class A carbapenemase KPC-3, P. aeruginosa expressing the Class B carbapenemase VIM-2, K. pneumoniae expressing the class A carbapenemase KPC-2 and the class B carbapenemase VIM-4, and S. aureus producing the Class A penicillinase PC-1. The assay was conducted in Cation Adjusted Mueller Hinton Broth (CAMHB, BD #212322, BD Diagnostic Systems, Sparks, Md.). Bacteria strains were grown for 3-5 hours in CAMBH broth. Test compounds (Examples 1-30) were added to a microtiter plate in 2-fold serial dilutions in CAMHB in a final concentration range of 32 μg/mL to 0.25 μg/ml. An overlay of CAMHB containing a Beta-lactam was added to the compounds at a final static concentration of 4 μg/ml. […] In addition to the titration of test compounds the MICs of a panel of control beta-lactams is also tested to ensure the strains are behaving consistently from test to test. Once the test compound and antibiotics are added the plates can be inoculated according to CLSI broth microdilution method. After inoculation the plates are incubated for 16-20 hours at 37° C. then the Minimal Inhibitory Concentration (MIC) of the test compound is determined visually.
(§5) Using the methodology described above, examples of the current invention were evaluated for their ability to inhibit the growth of β-lactamase-producing bacteria in the presence of a β-lactam antibiotic.
(§6) Using the methodology described above in EXAMPLE III, exemplary compounds for Formula I or Formula Ia were evaluated for their ability to inhibit the growth of β-lactamase producing bacteria in the presence of a β-lactam antibiotic.

[4] = test system: S. aureus MSSA-7 producing penicillinase PC-1; experiment: Broth microdilution MIC, S. aureus MSSA-7 PC-1; assay type: cell-based; conditions: fixed 4 μg/mL piperacillin; CAMHB, 16-20 hours at 37° C.
From the text: as §4, §5, §6

[5] = test system: K. pneumoniae A-1797 expressing KPC-2 and VIM-4; experiment: Broth microdilution MIC, K. pneumoniae A-1797 KPC-2/VIM-4; assay type: cell-based; conditions: fixed 4 μg/mL meropenem; CAMHB, 16-20 hours at 37° C.
From the text: as §4, §5, §6

[6] = test system: P. aeruginosa Ps296 expressing VIM-2; experiment: Broth microdilution MIC, P. aeruginosa Ps296 VIM-2; assay type: cell-based; conditions: fixed 4 μg/mL meropenem; CAMHB, 16-20 hours at 37° C.
From the text: as §4, §5, §6

[7] = molecular target: T3, SHV-5 β-lactamase (Class A ESBL) (Klebsiella pneumoniae, UniProt P0A3M1); experiment: β-Lactamase inhibition, SHV-5; assay type: biochemical
T3 construct: made in house; host or cells: E. coli BL21(DE3)
T3 sequence (P0A3M1 22-286): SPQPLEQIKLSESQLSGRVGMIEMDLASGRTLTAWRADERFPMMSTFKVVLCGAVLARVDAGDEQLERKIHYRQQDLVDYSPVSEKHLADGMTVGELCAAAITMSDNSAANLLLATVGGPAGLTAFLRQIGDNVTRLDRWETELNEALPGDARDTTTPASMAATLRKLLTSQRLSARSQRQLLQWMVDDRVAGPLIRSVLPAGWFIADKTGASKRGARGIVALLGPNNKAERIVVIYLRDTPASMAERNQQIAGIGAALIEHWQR
Description: as §1, §2, §3

[8] = molecular target: T4, KPC-2 β-lactamase (Class A carbapenemase) (Klebsiella pneumoniae, UniProt Q9F663); experiment: β-Lactamase inhibition, KPC-2; assay type: biochemical; conditions: imipenem substrate, 300 nm; 15 min preincubation at 37° C., PBS pH 7.4
T4 construct: made in house; host or cells: E. coli BL21(DE3)
T4 sequence (Q9F663 25-293, looked up): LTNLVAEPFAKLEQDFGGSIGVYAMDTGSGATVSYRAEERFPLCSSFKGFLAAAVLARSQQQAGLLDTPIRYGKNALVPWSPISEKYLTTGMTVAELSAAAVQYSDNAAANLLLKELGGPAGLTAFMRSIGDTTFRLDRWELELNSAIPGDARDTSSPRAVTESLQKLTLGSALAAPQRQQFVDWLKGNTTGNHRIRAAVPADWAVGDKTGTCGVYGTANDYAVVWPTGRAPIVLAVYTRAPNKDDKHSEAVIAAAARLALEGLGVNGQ
Description: as §1, §2, §3

[9] = test system: E. coli ESBL4 expressing CTX-M-15; experiment: Broth microdilution MIC, E. coli ESBL4 CTX-M-15; assay type: cell-based; conditions: fixed 4 μg/mL ceftazidime; CAMHB, 16-20 hours at 37° C.
From the text: as §4, §5, §6

[10] = molecular target: T5, VIM-2 metallo-β-lactamase (Class B) (Pseudomonas aeruginosa, UniProt Q9K2N0); experiment: β-Lactamase inhibition, VIM-2; assay type: biochemical; conditions: nitrocefin 100 μM, 486 nm; 15 min preincubation at 37° C., PBS pH 7.4
T5 construct: made in house; host or cells: E. coli BL21(DE3)
Description: For Vim-2 metallo β-lactamase, the procedure was identical with the following exceptions, first the protein was not pH adjusted to pH 5 with 50 mM sodium acetate, second, the chromatography step was changed to a 5 ml Q sepharose anion exchange column pre-equilibrated with 50 mM Hepes pH 7.5, and elution of the protein was achieved by a linear gradient of NaCl (0-600 mM). Finally, the VIM-2 purification required a second run (3rd step) on the Q sepharose anion exchange column to achieve acceptable purity (>90%).
as §2, §3

[11] = test system: K. pneumoniae 156319 expressing KPC-3; experiment: Broth microdilution MIC, K. pneumoniae 156319 KPC-3; assay type: cell-based; conditions: fixed 4 μg/mL meropenem; CAMHB, 16-20 hours at 37° C.
From the text: as §4, §5, §6

T1 sequence (P05364 21-381): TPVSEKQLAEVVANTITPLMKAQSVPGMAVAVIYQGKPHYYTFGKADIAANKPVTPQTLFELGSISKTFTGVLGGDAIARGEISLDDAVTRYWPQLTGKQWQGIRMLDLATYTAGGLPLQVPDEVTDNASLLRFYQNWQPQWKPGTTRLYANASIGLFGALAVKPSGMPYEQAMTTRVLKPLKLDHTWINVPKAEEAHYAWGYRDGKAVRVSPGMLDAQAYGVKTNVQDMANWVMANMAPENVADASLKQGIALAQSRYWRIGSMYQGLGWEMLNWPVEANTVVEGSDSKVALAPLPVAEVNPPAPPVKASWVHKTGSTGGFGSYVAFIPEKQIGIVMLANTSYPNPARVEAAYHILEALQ

| Structure (SMILES) | IC50 [1] [nM] | IC50 [2] [nM] | MIC of example compound in presence of fixed β-lactam: Fixed CAZ, E. cl. 144200 p99 AmpC [3] | MIC of example compound in presence of fixed β-lactam: Fixed Pip, S. aureus MSSA-7 PC-1 [4] | MIC of example compound in presence of fixed β-lactam: Fixed Mero, K. P. A-1797 KPC-2 VIM-4 [5] | MIC of example compound in presence of fixed β-lactam: Fixed Mero, P. aerug. Ps296 VIM-2 [6] | IC50 [7] [nM] | IC50 [8] [nM] | MIC of example compound in presence of fixed β-lactam: Fixed CAZ, E. coli ESBL4 CTX-M-15 [9] | IC50 [10] [nM] | MIC of example compound in presence of fixed β-lactam: Fixed Mero, K. P. 156319 KPC-3 [11] |
| --- | --- | --- | --- | --- | --- | --- | --- | --- | --- | --- | --- |
| NC1CCN(CC(=O)N[C@H]2Cc3cccc(C(=O)O)c3OB2O)CC1 [Example 1, 3-[2-(4-Amino-piperidin-1-yl)-acetylamino]-2-hydroxy-3,4-dihydro-2H-benzo[e][1,2]oxaborinine-8-carboxylic acid] | < 100 | 100 to 1000 | B (the MIC in the presence of between 8 and 32 μg/mL of a β-lactamase inhibitor) | C (the MIC in the presence of <4 μg/mL of a β-lactamase inhibitor) | A (an MIC of the fixed β-lactam antibiotic in the presence of >32 μg/mL of a β-lactamase inhibitor) | A (an MIC of the fixed β-lactam antibiotic in the presence of >32 μg/mL of a β-lactamase inhibitor) | < 100 | < 100 | C (the MIC in the presence of <4 μg/mL of a β-lactamase inhibitor) | 10000 to 100000 | – |
| O=C(CN1CCN(c2ccccn2)CC1)N[C@H]1Cc2cccc(C(=O)O)c2OB1O [Example 2, 2-Hydroxy-3-[2-(4-pyridin-2-yl-piperazin-1-yl)-acetylamino]-3,4-dihydro-2H-benzo[e][1,2]oxaborinine-8-carboxylic acid] | < 100 | 100 to 1000 | C (the MIC in the presence of <4 μg/mL of a β-lactamase inhibitor) | C (the MIC in the presence of <4 μg/mL of a β-lactamase inhibitor) | A (an MIC of the fixed β-lactam antibiotic in the presence of >32 μg/mL of a β-lactamase inhibitor) | A (an MIC of the fixed β-lactam antibiotic in the presence of >32 μg/mL of a β-lactamase inhibitor) | < 100 | 100 to 1000 | C (the MIC in the presence of <4 μg/mL of a β-lactamase inhibitor) | 1000 to 10000 | B (the MIC in the presence of between 8 and 32 μg/mL of a β-lactamase inhibitor) |
| CN(C)CCN1CCN(CC(=O)N[C@H]2Cc3cccc(C(=O)O)c3OB2O)CC1 [Example 3, 3-{2-[4-(2-Dimethylamino-ethyl)-piperazin-1-yl]-acetylamino}-2-hydroxy-3,4-dihydro-2H-benzo[e][1,2]oxaborinine-8-carboxylic acid] | < 100 | 100 to 1000 | C (the MIC in the presence of <4 μg/mL of a β-lactamase inhibitor) | C (the MIC in the presence of <4 μg/mL of a β-lactamase inhibitor) | B (the MIC in the presence of between 8 and 32 μg/mL of a β-lactamase inhibitor) | C (the MIC in the presence of <4 μg/mL of a β-lactamase inhibitor) | < 100 | < 100 | C (the MIC in the presence of <4 μg/mL of a β-lactamase inhibitor) | 1000 to 10000 | C (the MIC in the presence of <4 μg/mL of a β-lactamase inhibitor) |
| O=C(CN1CCNCC1)N[C@H]1Cc2cccc(C(=O)O)c2OB1O [Example 4, 2-Hydroxy-3-(2-piperazin-1-yl-acetylamino)-3,4-dihydro-2H-benzo[e][1,2]oxaborinine-8-carboxylic acid] | < 100 | 100 to 1000 | C (the MIC in the presence of <4 μg/mL of a β-lactamase inhibitor) | C (the MIC in the presence of <4 μg/mL of a β-lactamase inhibitor) | B (the MIC in the presence of between 8 and 32 μg/mL of a β-lactamase inhibitor) | B (the MIC in the presence of between 8 and 32 μg/mL of a β-lactamase inhibitor) | < 100 | < 100 | C (the MIC in the presence of <4 μg/mL of a β-lactamase inhibitor) | 1000 to 10000 | C (the MIC in the presence of <4 μg/mL of a β-lactamase inhibitor) |
